The record followed here is ChEMBL document CHEMBL4311992, “Discovery of 3-(((9H-purin-6-yl)amino)methyl)-4,6-dimethylpyridin-2(1H)-one derivatives as novel tubulin polymerization inhibitors for treatment of cancer” (Eur J Med Chem, 2019).

Calls of active or inactive are those of the source. The calls are words filed in the database; no cut-off is given here.

Test [1] relates to SW-620. Kind of test: Cell cycle arrest in human SW620 cells assessed as up regulation of CDK1 expression up to 150 nM after 24 hrs by Western blot analysis. The format is functional, cell-based.
Test [2] concerns the target Tyrosine-protein kinase CSK (Homo sapiens) (UniProt P41240). Kind of test: Inhibition of full-length recombinant human CSK assessed as residual activity at 10 uM using poly(Glu, Tyr) 4:1 as substrate measured after 40 mins in presence of [gamma33P]ATP by scintillation counting method.
Test [3] has as its system RAC-gamma serine/threonine-protein kinase (Homo sapiens), Q9Y243 [S472D]. Kind of test: Inhibition of recombinant full-length human PKBgamma S472D mutant (117 to end residues) assessed as residual activity at 10 uM using GRPRTSSFAEGKK as substrate measured after 40 mins in presence of [gamma33P]ATP by scintillation counting method.
Test [4] deals with Protein-tyrosine kinase 6 (Homo sapiens) (UniProt Q13882). Kind of test: Inhibition of full-length recombinant human BRK assessed as residual activity at 10 uM using poly(Glu, Tyr) 4:1 as substrate measured after 40 mins in presence of [gamma33P]ATP by scintillation counting method.
The target of test [5] is Focal adhesion kinase 1 (Homo sapiens) (UniProt Q05397). Kind of test: Inhibition of recombinant human FAK (411 to 686 residues) assessed as residual activity at 10 uM using EEEEYEEEEEEYYIIEEEEEEYEEEEEEYYEEEEEEKKKK as substrate measured after 40 mins in presence of [gamma33P]ATP by scintillation counting method.
Test [6] concerns the target Tyrosine-protein kinase Fer (Homo sapiens) (UniProt P16591). Kind of test: Inhibition of recombinant human FER (541 to end residues) assessed as residual activity at 10 uM using KKKSPGEYVNIEFG as substrate measured after 40 mins in presence of [gamma33P]ATP by scintillation counting method.
For test [7], the target named is Serine/threonine-protein kinase PAK 3 (Homo sapiens) (UniProt O75914). Kind of test: Inhibition of recombinant full-length human PAK3 assessed as residual activity at 10 uM using RRRLSFAEPG as substrate measured after 40 mins in presence of [gamma33P]ATP by scintillation counting method.
Chain of Serine/threonine-protein kinase PAK 3 (Homo sapiens) (O75914 whole entry, looked up): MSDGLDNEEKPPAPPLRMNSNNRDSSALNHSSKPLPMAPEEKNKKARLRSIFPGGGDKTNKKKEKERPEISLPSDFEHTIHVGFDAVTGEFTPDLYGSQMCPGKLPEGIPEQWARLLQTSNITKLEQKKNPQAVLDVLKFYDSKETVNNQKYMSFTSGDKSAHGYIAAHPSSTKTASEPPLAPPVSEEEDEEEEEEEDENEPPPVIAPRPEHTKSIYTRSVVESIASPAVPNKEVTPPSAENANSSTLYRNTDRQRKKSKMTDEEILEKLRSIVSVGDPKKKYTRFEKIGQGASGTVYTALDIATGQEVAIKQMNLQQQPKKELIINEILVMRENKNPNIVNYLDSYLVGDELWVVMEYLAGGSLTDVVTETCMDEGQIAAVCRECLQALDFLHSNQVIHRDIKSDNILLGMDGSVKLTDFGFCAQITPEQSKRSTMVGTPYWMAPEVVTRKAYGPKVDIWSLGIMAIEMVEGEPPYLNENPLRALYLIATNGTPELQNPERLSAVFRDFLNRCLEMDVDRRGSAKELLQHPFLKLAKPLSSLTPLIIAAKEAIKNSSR
For test [8], the target named is NUAK family SNF1-like kinase 2 (Homo sapiens) (UniProt Q9H093). Kind of test: Inhibition of recombinant full-length human NUAK2 assessed as residual activity at 10 uM using KKKVSRSGLYRSPSMPENLNRPR as substrate measured after 40 mins in presence of [gamma33P]ATP by scintillation counting method.
Test [9] deals with Epidermal growth factor receptor (Homo sapiens), P00533 [L861Q]. Kind of test: Inhibition of recombinant human EGFR L861Q mutant (696 to end residues) assessed as residual activity at 10 uM using poly(Glu, Tyr) 4:1 as substrate measured after 40 mins in presence of [gamma33P]ATP by scintillation counting method.
Test [10] concerns the target Serine/threonine-protein kinase PLK2 (Homo sapiens) (UniProt Q9NYY3). Kind of test: Inhibition of human Snk (65 to 409 residues) using casein as substrate measured after 40 mins in presence of [gamma33P]ATP by scintillation counting method. Also on record: scale not given: the % may be the effect or the level left.
In test [11] the test system is SW-620. Kind of test: Induction of apoptosis in human SW620 cells assessed as late apoptotic cells at 25 nM measured after 48 hrs by Annexin V-FITC/propidium iodide staining-based flow cytometry (reference value: 1.8%). The format is functional. (In general: A flow cytometer gives signals particle by particle.)
The next test concerns HCT-116. Kind of test: Induction of apoptosis in human HCT116 cells assessed as necrotic cells at 100 nM measured after 48 hrs by Annexin V-FITC/propidium iodide staining-based flow cytometry (reference value: 1.16%). The format is functional.
Test [12] deals with CDK7/Cyclin H/MNAT1 (Homo sapiens) (UniProt P51946+P50613+P51948). Kind of test: Inhibition of recombinant full length human CDK7/cyclin H/MAT1 assessed as residual activity at 10 uM using peptide substrate measured after 40 mins in presence of [gamma33P]ATP by scintillation counting method. Format: protein-complex assay.
Test [13] deals with Tyrosine-protein kinase ABL1 (Homo sapiens), P00519 [T315I]. Kind of test: Inhibition of recombinant human ABL T315I mutant (27 to end residues) assessed as residual activity at 10 uM using EAIYAAPFAKKK as substrate measured after 40 mins in presence of [gamma33P]ATP by scintillation counting method.
The subject of test [14] is Epidermal growth factor receptor (Homo sapiens), P00533 [T790M]. Kind of test: Inhibition of recombinant human EGFR T790M mutant (696 to end residues) assessed as residual activity at 10 uM using GGMEDIYFEFMGGKKK as substrate measured after 40 mins in presence of [gamma33P]ATP by scintillation counting method.
Test [15] deals with Dual specificity tyrosine-phosphorylation-regulated kinase 3 (Homo sapiens) (UniProt O43781). Kind of test: Inhibition of recombinant full-length human DYRK3 assessed as residual activity at 10 uM using RRRFRPASPLRGPPK as substrate measured after 40 mins in presence of [gamma33P]ATP by scintillation counting method.
Chain of Dual specificity tyrosine-phosphorylation-regulated kinase 3 (Homo sapiens) (O43781 whole entry): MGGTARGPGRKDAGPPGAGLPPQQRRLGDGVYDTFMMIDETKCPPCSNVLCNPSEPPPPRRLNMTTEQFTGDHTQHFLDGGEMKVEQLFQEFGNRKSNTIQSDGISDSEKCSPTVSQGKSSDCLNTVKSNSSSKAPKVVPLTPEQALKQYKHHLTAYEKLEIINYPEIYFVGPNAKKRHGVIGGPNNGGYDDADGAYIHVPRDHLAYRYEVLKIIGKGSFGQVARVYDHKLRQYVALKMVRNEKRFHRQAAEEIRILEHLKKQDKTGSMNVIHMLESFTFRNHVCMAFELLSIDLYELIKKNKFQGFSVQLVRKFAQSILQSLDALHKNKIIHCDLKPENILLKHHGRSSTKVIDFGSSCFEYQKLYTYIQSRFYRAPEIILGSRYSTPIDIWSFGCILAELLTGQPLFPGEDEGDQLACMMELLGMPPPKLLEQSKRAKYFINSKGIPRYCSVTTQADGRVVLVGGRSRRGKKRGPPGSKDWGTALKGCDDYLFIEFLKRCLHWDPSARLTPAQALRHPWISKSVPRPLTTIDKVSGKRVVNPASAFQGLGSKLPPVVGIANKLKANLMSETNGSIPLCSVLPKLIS
Test [16] addresses Tyrosine-protein kinase Fyn (Homo sapiens) (UniProt P06241). Kind of test: Inhibition of recombinant full-length human FYN assessed as residual activity at 10 uM using Cdc2 peptide as substrate measured after 40 mins in presence of [gamma33P]ATP by scintillation counting method.
For test [17], the system named is SW-620. Kind of test: Cell cycle arrest in human SW620 cells assessed as up regulation of cdc25 expression up to 150 nM after 24 hrs by Western blot analysis. The format is functional, cell-based. Background: A western blot detects proteins with antibodies after separation by electrophoresis.
Test [18] has as its target Serine/threonine-protein kinase VRK2 (Homo sapiens) (UniProt Q86Y07). Kind of test: Inhibition of human VRK2 (1 to 336 residues) using casein as substrate measured after 40 mins in presence of [gamma33P]ATP by scintillation counting method. Also on record: scale not given: the % may be the effect or the level left.
Test [19] has as its system Serine/threonine-protein kinase D1 (Homo sapiens), Q15139 [UNDEFINED MUTATION]. Kind of test: Inhibition of recombinant full-length human PKCmu R135A mutant assessed as residual activity at 10 uM using KKLNRTLSVA as substrate measured after 40 mins in presence of [gamma33P]ATP by scintillation counting method.
Test [20] deals with Ribosomal protein S6 kinase alpha-2 (Homo sapiens) (UniProt Q15349). Kind of test: Inhibition of recombinant full-length human Rsk3 assessed as residual activity at 10 uM using KKKNRTLSVA as substrate measured after 40 mins in presence of [gamma33P]ATP by scintillation counting method.
Chain of Ribosomal protein S6 kinase alpha-2 (Homo sapiens) (Q15349 whole entry, the tested form may be a part, canonical isoform): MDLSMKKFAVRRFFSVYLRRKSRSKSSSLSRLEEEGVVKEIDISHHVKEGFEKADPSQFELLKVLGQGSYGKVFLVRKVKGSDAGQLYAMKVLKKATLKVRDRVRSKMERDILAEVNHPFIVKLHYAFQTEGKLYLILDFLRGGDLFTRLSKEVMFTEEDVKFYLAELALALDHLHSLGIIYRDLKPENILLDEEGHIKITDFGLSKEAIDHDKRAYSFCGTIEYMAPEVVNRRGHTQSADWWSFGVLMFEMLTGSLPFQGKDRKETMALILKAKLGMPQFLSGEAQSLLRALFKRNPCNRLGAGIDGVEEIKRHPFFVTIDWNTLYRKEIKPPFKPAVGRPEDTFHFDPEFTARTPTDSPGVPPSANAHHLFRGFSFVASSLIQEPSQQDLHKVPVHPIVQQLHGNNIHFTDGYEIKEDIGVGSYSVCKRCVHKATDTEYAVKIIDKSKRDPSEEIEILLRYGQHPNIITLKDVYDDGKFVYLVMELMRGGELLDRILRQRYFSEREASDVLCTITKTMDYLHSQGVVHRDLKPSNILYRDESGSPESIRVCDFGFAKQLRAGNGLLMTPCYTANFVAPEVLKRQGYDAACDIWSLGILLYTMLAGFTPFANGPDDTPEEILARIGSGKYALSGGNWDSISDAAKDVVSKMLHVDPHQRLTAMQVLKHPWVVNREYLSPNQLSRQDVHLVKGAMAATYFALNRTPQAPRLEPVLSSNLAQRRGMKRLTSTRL
Test [21] concerns Casein kinase I isoform gamma-3 (Homo sapiens), Q9Y6M4 [UNDEFINED MUTATION]. Kind of test: Inhibition of recombinant human CK1gamma3 K91E/R174G/E302D mutant (1 to 330 residues) assessed as residual activity at 10 uM using KRRRALS(p)VASLPGL as substrate measured after 40 mins in presence of [gamma33P]ATP by scintillation counting method.
Chain of Casein kinase I isoform gamma-3 (Homo sapiens), Q9Y6M4 [UNDEFINED MUTATION] (Q9Y6M4 whole entry, looked up, stated change not applied, the tested form may be a part, canonical isoform): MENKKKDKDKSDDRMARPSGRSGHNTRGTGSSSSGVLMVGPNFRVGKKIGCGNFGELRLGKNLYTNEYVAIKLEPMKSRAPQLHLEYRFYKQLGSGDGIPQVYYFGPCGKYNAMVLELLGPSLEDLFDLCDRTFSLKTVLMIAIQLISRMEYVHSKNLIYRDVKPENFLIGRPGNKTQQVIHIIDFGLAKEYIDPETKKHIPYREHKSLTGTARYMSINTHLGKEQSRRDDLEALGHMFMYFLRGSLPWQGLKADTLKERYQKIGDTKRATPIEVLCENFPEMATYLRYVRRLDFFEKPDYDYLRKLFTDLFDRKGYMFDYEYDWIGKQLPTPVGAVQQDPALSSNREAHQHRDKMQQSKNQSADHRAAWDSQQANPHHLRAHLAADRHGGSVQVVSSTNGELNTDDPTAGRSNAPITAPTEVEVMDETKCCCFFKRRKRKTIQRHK
For test [22], the target named is Tyrosine-protein kinase Yes (Homo sapiens) (UniProt P07947). Kind of test: Inhibition of recombinant full-length human Yes assessed as residual activity at 10 uM using poly(Glu, Tyr) 4:1 as substrate measured after 40 mins in presence of [gamma33P]ATP by scintillation counting method.

Chain of Tyrosine-protein kinase Fer (Homo sapiens) (P16591 whole entry, looked up): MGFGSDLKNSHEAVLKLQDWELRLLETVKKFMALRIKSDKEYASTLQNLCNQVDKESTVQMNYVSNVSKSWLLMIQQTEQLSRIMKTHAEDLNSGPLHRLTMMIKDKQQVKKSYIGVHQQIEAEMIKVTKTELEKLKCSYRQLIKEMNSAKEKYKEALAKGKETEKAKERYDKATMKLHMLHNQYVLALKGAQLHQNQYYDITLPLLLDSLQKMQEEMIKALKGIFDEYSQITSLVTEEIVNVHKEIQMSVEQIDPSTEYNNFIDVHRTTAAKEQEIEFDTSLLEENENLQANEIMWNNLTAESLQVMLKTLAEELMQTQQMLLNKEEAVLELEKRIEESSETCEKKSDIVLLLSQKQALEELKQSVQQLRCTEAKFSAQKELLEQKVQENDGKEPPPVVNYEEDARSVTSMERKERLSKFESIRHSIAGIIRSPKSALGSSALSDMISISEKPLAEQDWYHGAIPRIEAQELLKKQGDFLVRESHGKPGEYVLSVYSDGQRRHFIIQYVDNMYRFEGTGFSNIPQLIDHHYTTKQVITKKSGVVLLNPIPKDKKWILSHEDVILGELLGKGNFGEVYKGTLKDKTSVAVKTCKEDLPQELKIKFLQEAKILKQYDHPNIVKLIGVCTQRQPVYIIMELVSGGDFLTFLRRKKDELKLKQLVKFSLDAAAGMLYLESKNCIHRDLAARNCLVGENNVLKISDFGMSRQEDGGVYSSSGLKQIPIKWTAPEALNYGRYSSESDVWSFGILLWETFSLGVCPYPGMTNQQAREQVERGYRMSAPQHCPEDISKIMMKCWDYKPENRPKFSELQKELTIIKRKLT
Chain of Serine/threonine-protein kinase D1 (Homo sapiens), Q15139 [UNDEFINED MUTATION] (Q15139 whole entry, looked up, stated change not applied): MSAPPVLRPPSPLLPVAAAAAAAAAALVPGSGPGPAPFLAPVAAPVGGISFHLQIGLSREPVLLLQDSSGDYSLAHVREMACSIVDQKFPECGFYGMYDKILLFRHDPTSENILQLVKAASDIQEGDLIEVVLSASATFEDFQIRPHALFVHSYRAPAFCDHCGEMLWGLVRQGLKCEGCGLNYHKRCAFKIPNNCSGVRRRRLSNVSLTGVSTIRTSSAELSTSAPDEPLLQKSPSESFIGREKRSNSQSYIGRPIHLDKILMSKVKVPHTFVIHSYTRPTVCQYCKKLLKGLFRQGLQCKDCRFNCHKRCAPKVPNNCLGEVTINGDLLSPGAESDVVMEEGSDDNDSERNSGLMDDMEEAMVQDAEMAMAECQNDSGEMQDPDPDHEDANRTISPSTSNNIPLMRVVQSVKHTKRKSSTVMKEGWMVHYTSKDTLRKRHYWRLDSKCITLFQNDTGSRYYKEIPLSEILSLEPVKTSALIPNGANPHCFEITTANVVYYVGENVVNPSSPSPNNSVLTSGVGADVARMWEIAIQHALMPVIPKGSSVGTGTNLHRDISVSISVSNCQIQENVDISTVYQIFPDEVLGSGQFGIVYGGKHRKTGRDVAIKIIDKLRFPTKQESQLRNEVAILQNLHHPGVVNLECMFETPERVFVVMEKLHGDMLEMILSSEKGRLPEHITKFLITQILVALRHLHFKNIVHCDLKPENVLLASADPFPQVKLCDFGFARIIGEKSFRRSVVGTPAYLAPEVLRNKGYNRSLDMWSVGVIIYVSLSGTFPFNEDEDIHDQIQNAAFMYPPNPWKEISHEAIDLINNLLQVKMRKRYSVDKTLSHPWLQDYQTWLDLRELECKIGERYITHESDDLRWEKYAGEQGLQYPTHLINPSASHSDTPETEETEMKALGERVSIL
Chain of Tyrosine-protein kinase CSK (Homo sapiens) (P41240 2-450 limits assumed): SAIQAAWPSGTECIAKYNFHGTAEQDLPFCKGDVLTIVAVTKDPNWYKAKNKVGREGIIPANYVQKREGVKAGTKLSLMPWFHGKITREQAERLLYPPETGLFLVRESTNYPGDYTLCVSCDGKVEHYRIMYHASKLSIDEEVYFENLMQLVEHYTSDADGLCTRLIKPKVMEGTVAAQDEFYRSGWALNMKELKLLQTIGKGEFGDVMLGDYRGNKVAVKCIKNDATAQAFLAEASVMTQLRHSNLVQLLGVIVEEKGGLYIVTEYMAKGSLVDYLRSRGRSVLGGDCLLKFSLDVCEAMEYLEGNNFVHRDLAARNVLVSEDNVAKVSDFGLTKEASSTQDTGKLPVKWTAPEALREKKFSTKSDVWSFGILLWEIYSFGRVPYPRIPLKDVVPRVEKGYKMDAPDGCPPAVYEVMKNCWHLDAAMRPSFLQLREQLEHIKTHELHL
Chain of Tyrosine-protein kinase Fyn (Homo sapiens) (P06241 2-537 limits assumed): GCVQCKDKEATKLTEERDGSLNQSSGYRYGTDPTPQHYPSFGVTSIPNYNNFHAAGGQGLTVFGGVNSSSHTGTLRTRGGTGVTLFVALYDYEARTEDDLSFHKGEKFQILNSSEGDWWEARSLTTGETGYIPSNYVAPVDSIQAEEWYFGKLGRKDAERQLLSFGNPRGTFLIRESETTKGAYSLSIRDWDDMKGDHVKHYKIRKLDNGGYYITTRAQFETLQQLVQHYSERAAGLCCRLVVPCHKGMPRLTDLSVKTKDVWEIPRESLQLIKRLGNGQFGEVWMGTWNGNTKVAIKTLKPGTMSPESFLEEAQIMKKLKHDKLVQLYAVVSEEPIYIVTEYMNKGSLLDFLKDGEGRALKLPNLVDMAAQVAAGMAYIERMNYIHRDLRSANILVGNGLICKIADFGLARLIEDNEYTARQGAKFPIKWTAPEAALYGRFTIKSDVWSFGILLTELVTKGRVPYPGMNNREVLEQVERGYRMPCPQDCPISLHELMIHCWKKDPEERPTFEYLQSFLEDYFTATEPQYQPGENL

Regarding `Cc1cc(C)c(CNc2nc(Cl)nc3c2ncn3C2CCCC2)c(=O)[nH]1`, the outcome in the test with SW-620 [1] and in the test with SW-620 [17] was Active. Moreover, the Activity is 98% in test [2]; 91% in [3]; 100% in test [4]; 104% in test [5]; 108% in test [6]; 134% in test [7]. Further, the Activity in [8] came to 114%; in [9], 98.5%; in test [10], 106%; in the test with SW-620 [11], 4.23%; in the test on HCT-116, 5.57%; in [12], 101%. In addition, the Activity in [13] is 108%; in test [14], 102%; in test [15], 122%; in test [16], 98%; in [18] it was 102%; in test [19] it was 103%. Besides, the figures for the Activity in test [20], in [21] and in test [22] were 114%, 106% and 79%, respectively.
